Assays:
[1] = refractive index (Na D-line) (dimensionless); mn = molality of the nth substance listed, in mol/kg; details: 101.3 kPa, Liquid, Standard Abbe refractometry
[2] = mn = molality of the nth substance listed, in mol/kg; details: 101.3 kPa, Liquid; for viscosity: Capillary tube (Ostwald / Ubbelohde) method; for mass density: Pycnometric method; for speed of sound: Single path-length method

O=C1O[C@H]([C@@H](O)CO)C(O)=C1O [L-ascorbic acid] + O
Details	mass density, [2] [kg/m3]	refractive index, [1]	speed of sound, [2] [m/s]	viscosity, [2] [mPa·s]
278.15 K, m1 = 0.0502	1003.69	1.3353	1429.5	1.566
278.15 K, m1 = 0.0997	1007.29	1.3365	1432.8	1.606
278.15 K, m1 = 0.1384	1010.1	1.3378	1434.7	1.634
278.15 K, m1 = 0.1964	1014.25	1.3394	1438.5	1.668
278.15 K, m1 = 0.2338	1016.85	1.3405	1440.5	1.699
278.15 K, m1 = 0.2927	1020.96	1.3419	1443.6	1.737
278.15 K, m1 = 0.3392	1024.27	1.3434	1445.3	1.77
278.15 K, m1 = 0.4069	1028.56	1.3448	1448.9	1.813
278.15 K, m1 = 0.4383	1030.63	1.3459	1451.3	1.842
278.15 K, m1 = 0.4932	1034.36	1.3472	1454.6	1.874
278.15 K, m1 = 0.5541	1038.24	1.3489	1458.2	1.921
278.15 K, m1 = 0.6251	1042.79	1.351	1463.2	1.974
278.15 K, m1 = 0.711	1048.36	1.3533	1467.3	2.033
278.15 K, m1 = 0.7457	1050.45	1.3544	1469.1	2.05
288.15 K, m1 = 0.0496	1002.68	1.3348	1468.6	1.165
288.15 K, m1 = 0.1009	1006.33	1.3364	1471.2	1.184
288.15 K, m1 = 0.1408	1009.14	1.3378	1473.2	1.205
288.15 K, m1 = 0.1952	1012.94	1.339	1476.3	1.236
288.15 K, m1 = 0.2426	1016.2	1.34	1479	1.257
288.15 K, m1 = 0.2997	1020.14	1.3417	1481.7	1.282
288.15 K, m1 = 0.3402	1022.83	1.3428	1483.8	1.288
288.15 K, m1 = 0.3936	1026.48	1.3441	1487.6	1.325
288.15 K, m1 = 0.4492	1030.03	1.3456	1489.1	1.353
288.15 K, m1 = 0.5096	1034.09	1.3471	1492.7	1.386
288.15 K, m1 = 0.5782	1038.38	1.3489	1496.4	1.424
288.15 K, m1 = 0.6302	1041.56	1.3499	1499.1	1.444
288.15 K, m1 = 0.6984	1046.01	1.352	1501.6	1.475
288.15 K, m1 = 0.7426	1048.42	1.3529	1503.6	1.494
298.15 K, m1 = 0.0502	1000.6	1.3339	1498.9	0.9072
298.15 K, m1 = 0.1017	1004.18	1.3354	1501.5	0.9235
298.15 K, m1 = 0.1409	1006.8	1.3365	1503.4	0.935
298.15 K, m1 = 0.1988	1010.73	1.338	1505.2	0.9544
298.15 K, m1 = 0.2402	1013.54	1.3391	1506.7	0.9688
298.15 K, m1 = 0.2987	1017.33	1.3407	1508.9	0.9928
298.15 K, m1 = 0.3421	1020.12	1.3418	1510.9	1.007
298.15 K, m1 = 0.4046	1024.34	1.3431	1514.2	1.028
298.15 K, m1 = 0.4536	1027.31	1.3443	1518.2	1.046
298.15 K, m1 = 0.5119	1030.98	1.3461	1520	1.068
298.15 K, m1 = 0.5788	1035.16	1.3478	1521.8	1.093
298.15 K, m1 = 0.6259	1038.06	1.3497	1523.6	1.111
298.15 K, m1 = 0.6974	1042.37	1.3508	1525.5	1.141
298.15 K, m1 = 0.7486	1045.37	1.3518	1527.3	1.164

O=C1O[C@H]([C@@H](O)CO)C([O-])=C1O.[Na+] [sodium L-ascorbate] + O
Details	mass density, [2] [kg/m3]	refractive index, [1]	speed of sound, [2] [m/s]	viscosity, [2] [mPa·s]
278.15 K, m1 = 0.0495	1005.25	1.3359	1432.4	1.564
278.15 K, m1 = 0.102	1010.89	1.338	1438.9	1.61
278.15 K, m1 = 0.1378	1014.72	1.3388	1443.6	1.633
278.15 K, m1 = 0.2009	1021.3	1.3411	1451.6	1.693
278.15 K, m1 = 0.2329	1024.63	1.3428	1456.6	1.727
278.15 K, m1 = 0.2951	1030.95	1.3448	1463.8	1.787
278.15 K, m1 = 0.3361	1035.04	1.3461	1469.1	1.828
278.15 K, m1 = 0.3968	1041.02	1.3485	1478.2	1.891
278.15 K, m1 = 0.4287	1044.29	1.3498	1480	1.925
278.15 K, m1 = 0.4929	1050.46	1.3519	1489.1	1.995
278.15 K, m1 = 0.5436	1055.28	1.3536	1494.6	2.052
278.15 K, m1 = 0.6275	1063.15	1.3564	1503.6	2.152
278.15 K, m1 = 0.6583	1065.96	1.3571	1509.1	2.192
278.15 K, m1 = 0.7407	1073.42	1.3602	1518.2	2.291
288.15 K, m1 = 0.0403	1003.38	1.3351	1470.4	1.167
288.15 K, m1 = 0.1263	1012.42	1.3373	1479.2	1.209
288.15 K, m1 = 0.1604	1015.94	1.3392	1483.6	1.24
288.15 K, m1 = 0.2478	1024.69	1.3423	1494.4	1.303
288.15 K, m1 = 0.301	1029.91	1.3439	1499.1	1.339
288.15 K, m1 = 0.3509	1034.82	1.346	1505.9	1.37
288.15 K, m1 = 0.4457	1043.86	1.3493	1518.2	1.45
288.15 K, m1 = 0.5156	1050.33	1.3502	1525.5	1.504
288.15 K, m1 = 0.5987	1057.95	1.3543	1532.7	1.575
288.15 K, m1 = 0.6446	1062.31	1.3558	1540	1.608
288.15 K, m1 = 0.6909	1066.4	1.3572	1545.5	1.652
288.15 K, m1 = 0.7466	1071.4	1.3592	1552	1.708
298.15 K, m1 = 0.0503	1002.31	1.3344	1501.9	0.9169
298.15 K, m1 = 0.1005	1007.49	1.3362	1507.2	0.9381
298.15 K, m1 = 0.1492	1012.47	1.3378	1512.6	0.9628
298.15 K, m1 = 0.1993	1017.5	1.3397	1518.1	0.9898
298.15 K, m1 = 0.2452	1022.1	1.3414	1522.5	1.007
298.15 K, m1 = 0.301	1027.58	1.3434	1527.6	1.04
298.15 K, m1 = 0.3456	1031.8	1.3449	1533.1	1.062
298.15 K, m1 = 0.4112	1038.01	1.347	1539.9	1.097
298.15 K, m1 = 0.4397	1040.84	1.3479	1542	1.113
298.15 K, m1 = 0.4892	1045.65	1.3495	1547.2	1.146
298.15 K, m1 = 0.5491	1051.09	1.3516	1554.4	1.183
298.15 K, m1 = 0.6035	1056.1	1.3534	1559.1	1.223
298.15 K, m1 = 0.6697	1062.08	1.3553	1565.3	1.257
298.15 K, m1 = 0.7314	1067.47	1.3571	1572.6	1.301
